The source of these data is EP4140481A1, “PROTEIN-OLIGOMER BINDING AGENTS AND THERAPEUTIC USES THEREOF” (Galyan Bio, Inc., priority 2021, dated 2023).

T1 sequence (P42858 with tags, fused parts or gaps with the stated changes): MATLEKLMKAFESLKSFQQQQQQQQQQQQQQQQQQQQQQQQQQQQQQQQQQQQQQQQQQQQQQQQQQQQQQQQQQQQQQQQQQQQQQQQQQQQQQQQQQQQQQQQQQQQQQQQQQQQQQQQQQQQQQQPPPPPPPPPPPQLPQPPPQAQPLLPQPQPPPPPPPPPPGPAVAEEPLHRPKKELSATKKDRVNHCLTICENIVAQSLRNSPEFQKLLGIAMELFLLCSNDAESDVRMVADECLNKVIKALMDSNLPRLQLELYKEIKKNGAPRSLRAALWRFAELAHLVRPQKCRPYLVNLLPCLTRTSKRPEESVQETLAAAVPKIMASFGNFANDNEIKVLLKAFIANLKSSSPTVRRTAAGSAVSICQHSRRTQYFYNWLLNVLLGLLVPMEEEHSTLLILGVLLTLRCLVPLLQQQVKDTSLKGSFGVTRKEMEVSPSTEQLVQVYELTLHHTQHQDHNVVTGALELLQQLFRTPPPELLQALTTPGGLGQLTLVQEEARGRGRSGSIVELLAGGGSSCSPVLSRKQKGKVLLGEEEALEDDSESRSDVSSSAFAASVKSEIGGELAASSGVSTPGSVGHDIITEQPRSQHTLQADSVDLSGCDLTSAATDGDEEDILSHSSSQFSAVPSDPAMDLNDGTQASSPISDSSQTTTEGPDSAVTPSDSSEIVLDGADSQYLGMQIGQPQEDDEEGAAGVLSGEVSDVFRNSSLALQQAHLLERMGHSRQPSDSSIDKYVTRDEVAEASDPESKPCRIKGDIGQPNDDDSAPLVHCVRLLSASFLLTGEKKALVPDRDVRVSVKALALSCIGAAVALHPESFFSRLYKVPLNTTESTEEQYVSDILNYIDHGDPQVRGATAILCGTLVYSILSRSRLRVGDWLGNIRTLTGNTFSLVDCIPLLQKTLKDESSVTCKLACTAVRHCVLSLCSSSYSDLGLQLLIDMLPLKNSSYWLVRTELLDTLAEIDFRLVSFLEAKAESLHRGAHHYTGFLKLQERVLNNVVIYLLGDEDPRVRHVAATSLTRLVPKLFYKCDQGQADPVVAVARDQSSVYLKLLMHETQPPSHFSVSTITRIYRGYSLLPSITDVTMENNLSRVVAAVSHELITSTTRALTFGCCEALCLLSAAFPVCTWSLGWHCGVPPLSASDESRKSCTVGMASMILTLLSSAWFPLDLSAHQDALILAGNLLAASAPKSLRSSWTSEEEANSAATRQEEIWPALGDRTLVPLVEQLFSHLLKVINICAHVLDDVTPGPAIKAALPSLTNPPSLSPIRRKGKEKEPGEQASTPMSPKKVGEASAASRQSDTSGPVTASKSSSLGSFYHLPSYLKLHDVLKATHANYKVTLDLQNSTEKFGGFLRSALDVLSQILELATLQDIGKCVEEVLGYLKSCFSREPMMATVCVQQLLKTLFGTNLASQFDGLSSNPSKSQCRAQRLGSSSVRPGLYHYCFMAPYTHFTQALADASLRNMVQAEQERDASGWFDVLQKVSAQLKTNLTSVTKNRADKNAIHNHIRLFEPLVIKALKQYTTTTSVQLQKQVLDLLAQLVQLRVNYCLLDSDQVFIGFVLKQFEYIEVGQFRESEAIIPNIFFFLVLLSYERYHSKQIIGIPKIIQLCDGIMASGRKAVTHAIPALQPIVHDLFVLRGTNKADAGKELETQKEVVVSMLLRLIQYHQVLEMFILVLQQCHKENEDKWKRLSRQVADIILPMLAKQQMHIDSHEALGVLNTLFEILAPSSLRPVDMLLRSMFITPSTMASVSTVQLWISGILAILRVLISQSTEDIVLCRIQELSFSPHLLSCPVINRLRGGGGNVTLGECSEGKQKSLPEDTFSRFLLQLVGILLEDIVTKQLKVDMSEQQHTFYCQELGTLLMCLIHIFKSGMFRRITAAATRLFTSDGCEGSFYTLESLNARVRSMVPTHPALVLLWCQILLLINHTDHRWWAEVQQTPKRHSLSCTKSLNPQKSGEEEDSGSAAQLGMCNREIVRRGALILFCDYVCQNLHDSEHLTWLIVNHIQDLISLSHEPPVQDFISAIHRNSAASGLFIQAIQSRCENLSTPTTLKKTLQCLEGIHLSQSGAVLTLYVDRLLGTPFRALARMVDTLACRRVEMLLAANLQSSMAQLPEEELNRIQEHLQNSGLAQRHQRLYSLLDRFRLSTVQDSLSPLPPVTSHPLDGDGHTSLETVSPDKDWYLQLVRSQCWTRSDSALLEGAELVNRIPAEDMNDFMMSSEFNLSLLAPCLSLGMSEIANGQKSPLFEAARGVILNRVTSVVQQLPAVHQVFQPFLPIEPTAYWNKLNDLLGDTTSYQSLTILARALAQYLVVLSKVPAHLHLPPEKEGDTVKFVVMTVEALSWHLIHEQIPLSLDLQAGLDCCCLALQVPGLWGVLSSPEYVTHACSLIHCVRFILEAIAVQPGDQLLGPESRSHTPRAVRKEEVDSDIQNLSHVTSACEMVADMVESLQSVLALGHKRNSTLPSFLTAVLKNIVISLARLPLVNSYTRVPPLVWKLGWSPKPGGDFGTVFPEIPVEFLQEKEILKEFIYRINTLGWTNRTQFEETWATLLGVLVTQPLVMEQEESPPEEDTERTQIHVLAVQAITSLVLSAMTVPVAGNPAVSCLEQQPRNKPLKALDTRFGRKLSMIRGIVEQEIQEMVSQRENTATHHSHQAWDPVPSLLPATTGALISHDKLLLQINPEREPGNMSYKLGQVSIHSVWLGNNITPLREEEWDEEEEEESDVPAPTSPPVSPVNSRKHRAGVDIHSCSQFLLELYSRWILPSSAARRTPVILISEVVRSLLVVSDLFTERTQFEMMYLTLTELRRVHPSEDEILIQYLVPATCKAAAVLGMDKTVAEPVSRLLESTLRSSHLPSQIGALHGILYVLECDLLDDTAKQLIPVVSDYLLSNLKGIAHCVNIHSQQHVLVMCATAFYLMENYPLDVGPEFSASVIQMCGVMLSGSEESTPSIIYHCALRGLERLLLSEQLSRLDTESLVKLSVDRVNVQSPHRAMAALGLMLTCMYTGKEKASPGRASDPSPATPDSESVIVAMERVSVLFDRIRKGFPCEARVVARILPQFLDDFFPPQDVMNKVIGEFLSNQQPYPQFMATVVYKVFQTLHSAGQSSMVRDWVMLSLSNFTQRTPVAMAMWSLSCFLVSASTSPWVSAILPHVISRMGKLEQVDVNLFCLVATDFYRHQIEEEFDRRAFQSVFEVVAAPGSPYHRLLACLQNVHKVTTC

The first assay addresses T1, mHTT (Homo sapiens, UniProt P42858).
T1 construct: host or cells: ST HDH Q111/111 mouse striatal cell line (knock-in locus)
The assay is described as follows: mHTT levels in striatal cells (immunocytochemistry). The format is cell-based, mouse. Particulars: STHdh 111/111; 10 µM; 3 hours heat shock, 48 hours treatment; percentage in comparison to untreated STHdh 111/111; 3B5H10 antibody. On the procedure: (§1) Staining - Cells were permeabilized with 0.3% Triton X-100 in 4 °C PBS (pH 7.4 from ThermoFisher) for 10 minutes. Then the cells were washed two times with 4 °C PBS. Subsequently, cells are blocked with 3% NGS (normal goat serum from Thermo Fisher) in 4 ° C PBS for 1 hour. Cells were incubated with primary antibodies in blocking buffer (PBS, 3% NGS, 0.02% NaN3) over night at 4 °C. Primary antibodies were mouse antipolyglutamine monoclonal antibody 3B5H10 (Sigma-Aldrich) at 1:250 dilution and Guinea Pig anti-MAP2 polyclonal antibody (Synaptic Systems) at 1:500 dilution. 3B5H10 binds to diffuse mHTT. Diffuse mHTT is a monomeric and small oligomeric mHTT. Diffuse mHTT is correlated to pathological parameters in Huntington's disease. Compounds that bind the mHTT will reduce the levels of diffuse mHTT detected.
Cells were washed 2 times with 4 °C PBS, and then incubated with secondary antibodies at 1:2000 dilution in blocking buffer for 1hour at room temperature. […] Cells were washed 2 times with 4 °C PBS, and then the nuclei were counterstain with DAPI (ThermoFisher) for 10 min at room temperature in the dark. Cells were washed 2 times with 4 °C PBS, and then 4 °C PBS was added to cells and then images were acquired. […] Table 11: Antibodies Used in Immunocytochemistry Studies
Fluorescence Imaging - Imaging sessions were performed on a confocal microscope system (Carl Zeiss Microscopy) equipped with a dual spinning disk unit (Yokogawa). All components of the imaging system were controlled via the ZEN 2 software suite (Carl Zeiss Microscopy). The laser lines used were 405 nm, 488 nm and 639 nm to excite DAPI or the respective fluorophores. […] Nested t test was performed to calculate the significance amongst repeated measurements using GraphPad Prism software.
as §1, with “For LC3 staining primary antibodies were mouse anti-LC3 mab (5F10) (nanoTools) at 1:500 dilution” for “3B5H10 binds to diffuse mHTT. Diffuse mHTT is a monomeric”, “Guinea Pig anti-MAP2 polyclonal antibody (Synaptic Systems) at 1:500 dilution.” for “small oligomeric mHTT. Diffuse mHTT is correlated to pathological parameters in Huntington's disease. Compounds that bind the mHTT will reduce the levels of diffuse mHTT detected.”
Cells were washed 2 times with 4 °C PBS, and then incubated with secondary antibodies at 1:2000 dilution in blocking buffer for 1hour at room temperature. […] Cells were washed 2 times with 4 °C PBS, and then the nuclei were counterstain with DAPI (ThermoFisher) for 10 min at room temperature in the dark. Cells were washed 2 times with 4 °C PBS, and then 4 °C PBS was added to cells and then images were acquired.
EC 50 value was determined with non-linear regression.
Compound `CCN(CC)CCNC(=O)c1ccc2c(c1)c(C)c(C)n2C` [Compound 19, N-(2-(Diethylamino)ethyl)-1,2,3-dimethyl-1H-indole-5-carboxamide] gave a mHTT after treatment of 45%. Same read-out and setting: in the case of `Cc1c(C)n(C)c2ccc(C(=O)NCCN3CCC3)cc12` [Compound 44, N-(2-(Azetidin-1-yl)ethyl)-1,2,3-dimethyl-1H-indole-5-carboxamide] it was 66%.

The assay is the same for the next values; noted with them: STHdh 111/111; 10 µM; 3 hours heat shock, 48 hours treatment; percentage in comparison to untreated STHdh 111/111; 3B5H10 antibody; read-out: mHTT after treatment.
As for `CCc1[nH]c2ccc(C(=O)NCCN3CCCC3)cc2c1C` [Compound 11], the remaining activity at 10 µM turned out to be 40%. On to `CN(C)CCNC(=O)c1ccc2[nH]c3c(c2c1)CCC3` [Compound 5], for which the remaining activity at 10 µM came to 36%.

In the case of `O=C(NCCN1CCC1)c1ccc2[nH]c3c(c2c1)CCC3` [Compound 42], the remaining activity at 10 µM is 65%. Same read-out and setting: in the case of `Cc1[nH]c2ccc(C(=O)NCCN3CCOCC3)cc2c1C` [Compound 2, 2,3-dimethyl-N-(2-morpholinoethyl)-1H-indole-5-carboxamide] it was 32%; in that of `O=C(NCCN1CCCCC1)c1ccc2[nH]c3c(c2c1)CCCC3` [Compound 16], 43%; in that of `CCc1c(C)[nH]c2ccc(C(=O)NCCN3CCOCC3)cc12` [Compound 32], 53%. Still for that read-out and setting: in the case of `CCc1c(C)[nH]c2ccc(C(=O)NCCN3CCC3)cc12` [Compound 33] it was 55%; in that of `Cc1c(C)n(C)c2ccc(C(=O)NCCN3CCCCC3)cc12` [Compound 31, 1,2,3-Trimethyl-N-(2-(piperidin-1-yl)ethyl)-1H-indole-5-carboxamide], 52%; in that of `CCc1[nH]c2ccc(C(=O)NCCN3CCCCC3)cc2c1C` [Compound 23], 47%. On the same count and under the same terms, then `CN(C)CCNC(=O)c1ccc2[nH]c3c(c2c1)CCCC3` [Compound 3], with 33%. Take `Cc1c(C)n(C)c2ccc(C(=O)NCCN3CCCCC3C)cc12` (centres unmarked) [Compound 48]: the remaining activity at 10 µM was found to be 68%.

For `CCN(CC)CCNC(=O)c1ccc2[nH]c3c(c2c1)CCC3` [Compound 27], the remaining activity at 10 µM was 50%. The same measure, in the same setting: in the case of `Cc1[nH]c2ccc(C(=O)NCCN3CCCCC3)cc2c1C` [Compound 47, 2,3-Dimethyl-N-(2-(piperidin-1-yl)ethyl)-1H-indole-5-carboxamide] it was 66%; in that of `CN1CCN(CCNC(=O)c2ccc3[nH]c4c(c3c2)CCC4)CC1` [Compound 10], 40%.

In the case of `Cc1c(C)n(C)c2ccc(C(=O)NCCN(C)C)cc12` [Compound 41, N-(2-(Dimethylamino)ethyl)-1,2,3-trimethyl-1H-indole-5-carboxamide], the remaining activity at 10 µM was found to be 65%.

Consider `O=C(NCCN1CCCC1)c1ccc2[nH]c3c(c2c1)CCCC3` [Compound 13], for which the remaining activity at 10 µM was found to be 41%.

As for `CN1CCN(CCNC(=O)c2ccc3[nH]c4c(c3c2)CCCC4)CC1` [Compound 36], the remaining activity at 10 µM is 56%.

On to `Cc1c(C)n(C)c2ccc(C(=O)NCCN3CCN(C)C(C)C3)cc12` (centres unmarked) [Compound 25, N-(2-(3,4-Dimethylpiperazin-1-yl)ethyl)-1,2,3-trimethyl-1H-indole-5-carboxamide], for which the remaining activity at 10 µM was 48%.

In the case of `Cc1[nH]c2ccc(C(=O)NCCN3CCCC3)cc2c1C` [Compound 29, 2,3-Dimethyl-N-(2-(pyrrolidin-1-yl)ethyl)-1H-indole-5-carboxamide], the remaining activity at 10 µM came to 51%. For `O=C(NCCN1CCC1)c1ccc2[nH]c3c(c2c1)CCCC3` [Compound 20], the remaining activity at 10 µM is 45%. On the same count and under the same terms, in the case of `CCc1c(C)[nH]c2ccc(C(=O)NCCN(C)C)cc12` [Compound 1] it was 30%.

Still in this assay, the particulars now being: STHdh 111/111; 3 hours heat shock, 48 hours treatment.
`Cc1[nH]c2ccc(S(=O)(=O)NCCN3CCCCC3)cc2c1C` [Compound 128]: the “Nuclear mHTT after treatment” value is 79.9%.

Take `Cc1[nH]c2ccc(S(=O)(=O)NCCN3CCOCC3)cc2c1C` [Compound 127]: the “Nuclear mHTT after treatment” value is on record as 23.9%.

Still in this assay, the particulars now being: STHdh 111/111 striatal cells.
Regarding `O=C(NCCN1CCC1)c1ccc2[nH]c3c(c2c1)CCCC3` [Compound 20], the “mHTT reduction with MG132 in comparison to without MG132” value is given as “less”.
